This is an account of results in PMC8122671, “New Succinimides with Potent Anticancer Activity: Synthesis, Activation of Stress Signaling Pathways and Characterization of Apoptosis in Leukemia and Cervical Cancer Cells” (International Journal of Molecular Sciences, 2021).

The nature of data set [1]: Lipophilicity (logkw) by reversed-phase chromatography (RP-HPLC). In kind it is physicochemical. To be noted: for logkw (Experimental): extrapolated to pure water; for logkw (Table S2): intercept of logk vs methanol fraction, n = 4. The text has this:
The main goal of the synthetic part was the synthesis of new derivatives of dicarboximides with decreased lipophilicity in comparison to the lead compounds, i.e., Ia–Ie and II. To reduce the lipophilicity of the new dicarboximides, a hydroxyalkyl chain connected with an aliphatic amine was introduced to the imides (Scheme 1). At the same time, the imide scaffold in derivatives from group 2 and 3 was the same as in lead compounds Ia–Ie and II, respectively (Figure 1). The structure of the imide was changed in derivatives 1b–1g. The lipophilicity of new derivatives was calculated using the Osiris Property Explorer program. For some compounds, lipophilicity was determined experimentally by a reversed-phase chromatography (detailed description is given in Materials and Methods and in the Supplementary Data, Table S2). Table 1 summarizes the calculated (clogP) and experimental (logkw) parameters of the lipophilicity of new derivatives.
The reversed-phase high-performance liquid chromatography (RP-HPLC) analysis was performed on a Merck–Hitachi LaChrom Elite System (Merck, Darmstadt, Germany) with diode array detector L-2455, thermostat L-2300, pump L-2130, and autosampler L-2200 and with the Waters XTerra MS RP-18 (3.5 μm, 150 × 4.6 mm) chromatographic column (Waters, Milford, MA, USA) as the stationary phase. The mobile phase consisted of methanol, water, and 0.1% (v/v) formic acid and was degassed by the use of the built-in membrane degasser. The methanol gradient grade for HPLC was purchased from Merck (Merck, Darmstadt, Germany) and formic acid from Polish Reagents (Polish Reagents, Gliwice, Poland); double-distilled water was used. Then, 5 μL of methanolic solutions (0.1%; m/v) of selected samples were applied to the chromatographic column by the use of an autosampler Hitachi L-2200 (LaChrom Elite, Hitachi-Merck, Darmstadt, Germany). The analysis was performed with the flow rate of 0.7 mL min^−1 in isocratic mode using various concentrations of organic modifier (methanol) in binary polar mobile phases; percentages of methanol in water were 45–70% (%, v/v) and changed by 5% per step. Chromatograms were detected at 254 nm and the temperature of the column was 25 °C. All experiments were repeated in triplicate, and the final results were taken to be the arithmetic means. Dead time was measured by the use of uracil (Calbiochem. Merck, Darmstadt, Germany). Statistical and regression analyses were performed using Statistica (ver. 13.3 for Windows). The chromatographic lipophilicity parameters ( logkW ) for selected samples were obtained by the extrapolation of the retention parameter logk to pure water, according to Equation (1):(1) logk=logkw−S·ϕ; where logkW is the value of the retention factor of a substance in pure water, S is the slope of the regression curve, and ϕ is the concentration of the organic modifier. The values of logk were calculated based on the raw HPLC data using the formula (2):(2) logk=logtR−t0/t0; where tR is the retention time and t0 is the dead retention time (determined for uracil).
The chromatographic lipophilicity parameters (logkௐ ) for selected samples were ob‐ tained by the extrapolation of the retention parame te r logk to pure water, according to […]
where logkௐ is the value of the retention factor of a substance in pure water, S is the slope of the regression curve, and φ is the concentration of the organic modifier. The values of logk were ca lcula ted based on the raw HPLC data using the formula: […]
logk ൌ log ሺ௧ೃ ି ௧బ௧బ ሻ (2) where tோ is the retention time and t଴ is the dead retention time (determined for ura‐ cil). The goodness of fit of the equation (1) to the experimental data was classified accord‐ ing to Jaffe (Jaffe, H. H. A Reexamination of the Hammet Equation. Chem. Rev. 1953, 53, In our RP‐HPLC experiments, the goodness of fit of the equation to the experi‐ mental data are excellent in most ca ses (r > 0.99). The F statistic val ues are, in all cases, […]

For data set [2], the system named is HeLa (human cervix carcinoma) cells. Put plainly: MTT cytotoxicity assay, HeLa. Conditions: 48 h incubation, average (SD) of three experiments, read-out: IC50 HeLa. It is filed as cell-based. (Tetrazolium assays rely on reduction of a dye to a coloured formazan, in cell work by metabolically active cells.)
For data set [3], the system named is HUVEC (normal endothelial) cells. Put plainly: MTT cytotoxicity assay, HUVEC. Conditions: Homo sapiens, 48 h incubation, average (SD) of three experiments, read-out: IC50 HUVEC. It is filed as cell-based.

As usually defined, the IC50 is the point on the concentration scale where inhibition reaches its midpoint. With `CCC12C(=O)C(CC)(C(c3ccccc3)=C1c1ccccc1)C1C(=O)N(CC(O)CNC(C)(C)C)C(=O)C12` (stereo not shown) [2c, 4-[3-(tert-butylamino)-2-hydroxypropyl]-1,7-diethyl-8,9-diphenyl-4-azatricyclo [5.2.1.0^2,6]dec-8-ene-3,5,10-trione], in data set [1], the “logkw (Experimental)” value is reported as 4.74 and the “logkw (Table S2)” value stood at 4.7442. The IC50 in data set [2] was 3200 nM. The IC50 in data set [3] was determined as 3300 nM.
Turning to `CCN(CC)CC(O)CN1C(=O)C2C(C1=O)C1(CC)C(=O)C2(CC)C(c2ccccc2)=C1c1ccccc1` (stereo not shown) [2d, 4-[3-(diethylamino)-2-hydroxypropyl]-1,7-diethyl-8,9-diphenyl-4-azatricyclo [5.2.1.0^2,6]dec-8-ene-3,5,10-trione], in data set [1], the “logkw (Experimental)” value is on record as 5.10 and the “logkw (Table S2)” value came to 5.1042. In addition, the IC50 in data set [2] stood at 18000 nM. Further, in data set [3], the IC50 was 3600 nM.
As to `CC(C)(C)NCC(O)CN1C(=O)C2C(C1=O)C1(c3ccccc3)CC2(c2ccccc2)C(c2ccccc2)=C1c1ccccc1` (stereo not shown) [3c, 4-[3-(tert-butylamino)-2-hydroxypropyl]-1,7,8,9-tetraphenyl-4-azatricyclo[5.2.1.0^2,6]dec-8-ene-3,5-dione], in data set [1], the “logkw (Experimental)” value is 6.06 and the “logkw (Table S2)” value turned out to be 6.0611. In data set [2], the IC50 came out at 2000 nM. In data set [3], the IC50 turned out to be 400 nM.
The like results for `CCN(CC)CC(O)CN1C(=O)C2C(C1=O)C1(c3ccccc3)CC2(c2ccccc2)C(c2ccccc2)=C1c1ccccc1` (stereo not shown) [3d, 4-[3-(diethylamino)-2-hydroxypropyl]-1,7,8,9-tetraphenyl-4-azatricyclo[5.2.1.0^2,6]dec-8-ene-3,5-dione] were, in that order, 6.28, 6.2845, 1900 nM and 300 nM.
